Assays:
[1] = system: MTOR; assay: Western blot of mTOR in transfected prostate cancer cells; assay type: cell-based, human; details: mimic transfection vs NS transfection
Experimental: […] RC77 T/E, a primary prostate cancer cell line derived from a patient, was kindly provided by Dr. Johng Rhim at Center for Prostate Disease Research (CPDR) in Rockville, MD. LNCaP and PC-3 were served as prostate cancer cell line models, and RC77 T/E and MDA PCa 2b were served as prostate cancer cell models in the study. The cells were cultured in specific cell culture media, LNCaP was cultured in RPMI with 10% fetal bovine serum (FBS), PC-3 was cultured in DMEM with 10% FBS, MDA PCa 2b were cultured in BRFF-HPC1 with 20% FBS and RC77 T/E was cultured in Keratinocyte SFM with Human Recombinant Epidermal Growth Factor (EGF 1-53) and Bovine Pituitary Extract (BPE). Cells were maintained at 37° C. in a 5% CO2 incubator. LNCaP, PC-3 and MDA PCa 2b cells were seeded at density 3×10^4 cells/well in 6-well plates. RC77 T/E cells were seeded at density 5×10^4 cells/well in 6-well plates. […]
For measurement of the gene expression at protein level, proteins were extracted using M-PER Mammalian Protein Extraction Reagent (Thermo Fisher Scientific) with protease and phosphatase inhibitor cocktail (Thermo Fisher Scientific). Protein concentrations were quantified using BCA assay kit (Thermo Fisher Scientific). […]

[2] = system: mTOR and pmTOR; assay: Immunofluorescence of mTOR and pmTOR in prostate cancer cell lines transfected with NS or miR-99b-5p mimic; assay type: cell-based, human; details: vs NS
Description: The human cell lines used in the study included: 22Rv1, LNCaP, PC-3, RC77 T/E and MDA PCa 2b (prostate cancer cell lines), MDA MB 231 and MCF-7 (breast cancer cell lines), HT-29 and SW620 (colon cancer cell lines), A549 and H1299 (lung cancer cell lines). RWPE-1, HMEC, FHC, and BEAS-2B were used as normal control cell lines for prostate, breast, colon, and lung, respectively. Note that 22Rv1 is a castration-resistant […] prostate cancer cell line, while LNCaP and PC-3 were derived from lymph node and bone metastasis of […] prostate cancer patients, respectively. RC77 T/E was derived from a primary prostate cancer patient, and MDA PCa 2b was derived from bone metastasis of an prostate cancer patient. The cell lines described were used as in vitro cell models to evaluate the functional roles of miR-99b-5p/MTOR pairing in the […] prostate cancer, African American prostate cancer and solid tumors in general. The cells were grown in specific cell culture media described as follows: 22Rv1, LNCaP, MCF-7 and H1299 were cultured in RPMI-1640 with 10% fetal bovine serum (FBS), PC-3, A549 and FHC were cultured in DMEM with 10% FBS, RC77 T/E was cultured in Keratinocyte SFM with human recombinant epidermal growth factor (EGF) and bovine pituitary extract (BPE), MDA PCa 2b were cultured in BRFF-HPC1 with 20% FBS, HT-29 was cultured in McCory's with 10% FBS, SW620 and MDA MB 231 were cultured in L-15 with 10% FBS, HMEC was cultured in mammary epithelial cell basal medium with supplements, and BEAS-2B was cultured in BEBM base medium with BEBM supplement kit. Cells were maintained at 37° C. in a 5% CO2 incubator.
The 22Rv1, LNCaP, PC-3, MDA PCa 2b, MCF7, H1299, A549, HT-29, SW620, MDA MB-231, HMEC and BEAS-2B cells were seeded at a density of 3×10^5 cells/well in 6-well plates. RC77 T/E cells were seeded at a density of 5×10^5 cells/well in 6-well plates. The cells were grown for 24 h and then transfected with nonsense/scrambled RNA (NS) and miR-99b-5p mimic (Ambion) using DharmaFECT4 transfection reagent (Dharmacon). After 24 h, fresh media were applied to replace the transfection reagent-containing media, then the cells were incubated for an additional 24 h.
In this process, 4×10^4 cells were seeded on cover slip and allowed to adhere for 24 h in 5% CO2 incubator at 37° C. All the cells were subjected to immunofluorescence assays 48 h following transfection. Briefly, cells were washed with 1×PBS, fixed in 4% paraformaldehyde, and permeabilized with 0.1% Triton X-100. Cells were then blocked for 1 h with 2% BSA in 1×PBS. […] All labeled and/or prepared cells mounted on glass slides and were visualized by fluorescence microscopy (Olympus). […]

[3] = 22Rv1, LNCaP, PC-3, RC77 T/E, MDA PCa 2b, 48 h following transfection
[4] = all European American and African American prostate cancer cell lines

miR-99b-5p mimic: miRNA mimic of miR-99b-5p (SEQ ID NO: 2, CACCCGUAGAACCGACCUUGCG), purchased from Ambion (listed as RNA, chemistry not given here; listed as Homo sapiens)
mTOR level (Western blot) [1]: downregulated | pmTOR signals (immunofluorescence) [2, 3]: generalized reduction | total mTOR signals (immunofluorescence) [2, 3]: generalized reduction | cytoplasmic pmTOR signals (immunofluorescence quantification) [2, 4]: increased | nuclear pmTOR signals (immunofluorescence quantification) [2, 4]: reduced significantly

Reference: patent US20240287614A1, “RECIPROCAL MICRORNA-MRNA PAIRINGS AS BIOMARKERS AND THERAPEUTIC TARGETS IN CANCER” (UNIVERSITY OF MARYLAND, EASTERN SHORE, priority 2023, published 2024)
